{"source": "patent US11390616B2", "about": "(BRISTOL-MYERS SQUIBB COMPANY, priority 2015, dated 2022)"}
{"biological_target": "T1, human APJ receptor (Homo sapiens, UniProt P35414)", "T1 construct": "expressed in transfected cells; host or cells: HEK293", "T1 sequence (P35414 1-380)": "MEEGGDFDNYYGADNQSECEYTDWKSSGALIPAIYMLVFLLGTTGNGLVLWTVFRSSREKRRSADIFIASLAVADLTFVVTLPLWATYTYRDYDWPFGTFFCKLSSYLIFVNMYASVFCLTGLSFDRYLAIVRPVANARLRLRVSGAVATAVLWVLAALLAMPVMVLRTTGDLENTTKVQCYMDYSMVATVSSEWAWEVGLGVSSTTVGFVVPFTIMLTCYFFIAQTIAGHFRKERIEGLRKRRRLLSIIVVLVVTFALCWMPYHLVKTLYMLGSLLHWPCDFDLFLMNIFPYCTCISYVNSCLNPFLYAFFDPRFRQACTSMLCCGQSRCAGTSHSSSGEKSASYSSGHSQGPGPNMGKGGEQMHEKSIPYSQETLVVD", "assay": "Intracellular cAMP accumulation assay (APJ hcAMP, HTRF)", "assay_type": "cell-based", "settings": "HEK293 cells stably expressing human APJ receptor; inhibition of forskolin-mediated cAMP production; read-out: APJ cAMP Potency range", "summary_of_the_method": "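Inhibition of forskolin (2 μM)-driven cAMP, with […], measured by HTRF after 30 min room-temperature compound exposure of stably transfected HEK293 cells. cAMP read from a standard curve; variable-slope fit gives EC50, and maximal inhibition is normalised to (Pyr1)apelin-13 as 100%.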", "units": {"EC50": "nM"}}
{"smiles": "CCCCc1nc(=O)c(Cc2ccc(C3CC3)cc2)c(O)n1[C@@H](CC)c1cccc(C#N)c1", "note": "[Example 101, 3-[(1S)-1-{2-butyl-5-[(4-cyclopropylphenyl)methyl]-6-hydroxy-4-oxo-1,4-dihydropyrimidin-1-yl}propyl]benzonitrile]", "EC50": "0.01 to 10"}
{"smiles": "CCCCc1nc(=O)c(Cc2ccc(C3CC3)cc2)c(O)n1[C@@H](CC)c1cccc(C#N)c1", "note": "[Example 102, 3-[(1S)-1-{2-butyl-5-[(4-cyclopropylphenyl)methyl]-6-hydroxy-4-oxo-1,4-dihydropyrimidin-1-yl}propyl]benzonitrile]", "EC50": "10 to 100"}
{"smiles": "CCCCc1nc(=O)c(Cc2ccc(-c3ccnc(F)c3C)cc2)c(O)n1[C@@H](CC)c1cccc(F)c1", "note": "[Example 103, 2-butyl-5-{[4-(2-fluoro-3-methylpyridin-4-yl)phenyl]methyl}-1-[(1S)-1-(3-fluorophenyl)propyl]-6-hydroxy-1,4-dihydropyrimidin-4-one]", "EC50": "0.01 to 10"}
{"smiles": "CCCCc1nc(=O)c(Cc2ccc(-c3ccc(F)nc3C)cc2)c(O)n1[C@@H](CC)c1cccc(F)c1", "note": "[Example 104, 2-butyl-5-{[4-(6-fluoro-2-methylpyridin-3-yl)phenyl]methyl}-1-[(1S)-1-(3-fluorophenyl)propyl]-6-hydroxy-1,4-dihydropyrimidin-4-one]", "EC50": "0.01 to 10"}
{"smiles": "CCCCc1nc(=O)c(Cc2ccc(-c3cccnc3C)cc2)c(O)n1[C@@H](CC)c1cccc(F)c1", "note": "[Example 105, 2-butyl-1-[(1S)-1-(3-fluorophenyl)propyl]-6-hydroxy-5-{[4-(2-methylpyridin-3-yl)phenyl]methyl}-1,4-dihydropyrimidin-4-one]", "EC50": "0.01 to 10"}
{"smiles": "CCCCc1nc(=O)c(Cc2ccc(-c3ccncc3C)cc2)c(O)n1[C@@H](CC)c1cccc(F)c1", "note": "[Example 106, 2-butyl-1-[(1S)-1-(3-fluorophenyl)propyl]-6-hydroxy-5-{[4-(3-methylpyridin-4-yl)phenyl]methyl}-1,4-dihydropyrimidin-4-one]", "EC50": "0.01 to 10"}
{"smiles": "CC[C@@H](c1cc(F)cc(F)c1)n1c(CCC2CC2)nc(=O)c(Cc2ccc(-c3ccc(F)nc3C)cc2)c1O", "note": "[Example 107, 2-(2-cyclopropylethyl)-1-[(1S)-1-(3,5-difluorophenyl)propyl]-5-{[4-(6-fluoro-2-methylpyridin-3-yl)phenyl]methyl}-6-hydroxy-1,4-dihydropyrimidin-4-one]", "EC50": "0.01 to 10"}
{"smiles": "CC[C@@H](c1cc(F)cc(F)c1)n1c(COC(C)C)nc(=O)c(Cc2ccc(-c3ccnc(F)c3C)cc2)c1O", "note": "[Example 108, 1-[(1S)-1-(3,5-difluorophenyl)propyl]-5-{[4-(2-fluoro-3-methylpyridin-4-yl)phenyl]methyl}-6-hydroxy-2-[(propan-2-yloxy)methyl]-1,4-dihydropyrimidin-4-one]", "EC50": "0.01 to 10"}
{"smiles": "CC[C@@H](c1cc(F)cc(F)c1)n1c(CCC2CC2)nc(=O)c(Cc2ccc(-c3cccnc3C)cc2)c1O", "note": "[Example 109, 2-(2-cyclopropylethyl)-1-[(1S)-1-(3,5-difluorophenyl)propyl]-6-hydroxy-5-{[4-(2-methylpyridin-3-yl)phenyl]methyl}-1,4-dihydropyrimidin-4-one]", "EC50": "0.01 to 10"}
{"smiles": "CC[C@@H](c1cc(F)cc(F)c1)n1c(CCC2CC2)nc(=O)c(Cc2ccc(-c3ccncc3C)cc2)c1O", "note": "[Example 110, 2-(2-cyclopropylethyl)-1-[(1S)-1-(3,5-difluorophenyl)propyl]-6-hydroxy-5-{[4-(3-methylpyridin-4-yl)phenyl]methyl}-1,4-dihydropyrimidin-4-one]", "EC50": "0.01 to 10"}
{"smiles": "CC[C@@H](c1cc(F)cc(F)c1)n1c(COC(C)C)nc(=O)c(Cc2ccc(-c3cccnc3C)cc2)c1O", "note": "[Example 111, 1-[(1S)-1-(3,5-difluorophenyl)propyl]-6-hydroxy-5-{[4-(2-methylpyridin-3-yl)phenyl]methyl}-2-[(propan-2-yloxy)methyl]-1,4-dihydropyrimidin-4-one]", "EC50": "0.01 to 10"}
{"smiles": "CC[C@@H](c1cc(F)cc(F)c1)n1c(COC(C)C)nc(=O)c(Cc2ccc(-c3ccc(F)nc3C)cc2)c1O", "note": "[Example 112, 1-[(1S)-1-(3,5-difluorophenyl)propyl]-5-{[4-(6-fluoro-2-methylpyridin-3-yl)phenyl]methyl}-6-hydroxy-2-[(propan-2-yloxy)methyl]-1,4-dihydropyrimidin-4-one]", "EC50": "0.01 to 10"}
{"smiles": "CC[C@@H](c1cc(F)cc(F)c1)n1c(CCC2CC2)nc(=O)c(Cc2ccc(-c3ccnc(F)c3C)cc2)c1O", "note": "[Example 113, 2-(2-cyclopropylethyl)-1-[(1S)-1-(3,5-difluorophenyl)propyl]-5-{[4-(2-fluoro-3-methylpyridin-4-yl)phenyl]methyl}-6-hydroxy-1,4-dihydropyrimidin-4-one]", "EC50": "0.01 to 10"}
{"smiles": "CC[C@@H](c1cc(F)cc(F)c1)n1c(COC(C)C)nc(=O)c(Cc2ccc(-c3ccncc3C)cc2)c1O", "note": "[Example 114, 1-[(1S)-1-(3,5-difluorophenyl)propyl]-6-hydroxy-5-{[4-(3-methylpyridin-4-yl)phenyl]methyl}-2-[(propan-2-yloxy)methyl]-1,4-dihydropyrimidin-4-one]", "EC50": "0.01 to 10"}
{"smiles": "Cc1ncccc1-c1ccc(Cc2c(O)n([C@H](c3cc(F)cc(F)c3)C(C)C)c(COC(C)C)nc2=O)cc1", "note": "[Example 115, 1-[(1S)-1-(3,5-difluorophenyl)-2-methylpropyl]-6-hydroxy-5-{[4-(2-methylpyridin-3-yl)phenyl]methyl}-2-[(propan-2-yloxy)methyl]-1,4-dihydropyrimidin-4-one]", "EC50": "0.01 to 10"}
{"smiles": "CC(C)OCc1nc(=O)c(Cc2ccc(-c3ccc(F)cc3C(N)=O)cc2)c(O)n1[C@H](c1cc(F)cc(F)c1)C(C)C", "note": "[Example 116, 4′-({1-[(1S)-1-(3,5-difluorophenyl)-2-methylpropyl]-6-hydroxy-4-oxo-2-[(propan-2-yloxy)methyl]-1,4-dihydropyrimidin-5-yl}methyl)-4-fluoro-[1,1′-biphenyl]-2-carboxamide]", "EC50": "0.01 to 10"}
{"smiles": "CC(C)[C@@H](c1cc(F)cc(F)c1)n1c(CCC2CC2)nc(=O)c(Cc2ccc(-c3ccc(F)cc3C(N)=O)cc2)c1O", "note": "[Example 117, 4′-{[2-(2-cyclopropylethyl)-1-[(1S)-1-(3,5-difluorophenyl)-2-methylpropyl]-6-hydroxy-4-oxo-1,4-dihydropyrimidin-5-yl]methyl}-4-fluoro-[1,1′-biphenyl]-2-carboxamide]", "EC50": "0.01 to 10"}
{"smiles": "CC[C@@H](c1ccccc1)n1c(-c2nc(C)cs2)nc(=O)c(Cc2ccc(-c3ccnc(F)c3C)c(F)c2)c1O", "note": "[Example 118, 5-{[3-fluoro-4-(2-fluoro-3-methylpyridin-4-yl)phenyl]methyl}-6-hydroxy-2-(4-methyl-1,3-thiazol-2-yl)-1-[(1S)-1-phenylpropyl]-1,4-dihydropyrimidin-4-one]", "EC50": "0.01 to 10"}
{"smiles": "CC[C@@H](c1ccccc1)n1c(-c2nc(C)cs2)nc(=O)c(Cc2ccc(-c3cccn(C)c3=O)c(F)c2)c1O", "note": "[Example 119, 5-{[3-fluoro-4-(1-methyl-2-oxo-1,2-dihydropyridin-3-yl)phenyl]methyl}-6-hydroxy-2-(4-methyl-1,3-thiazol-2-yl)-1-[(1S)-1-phenylpropyl]-1,4-dihydropyrimidin-4-one]", "EC50": "0.01 to 10"}
{"smiles": "CC[C@@H](c1ccccc1)n1c(-c2nc(C)cs2)nc(=O)c(Cc2ccc(-c3ccc(F)cc3C(N)=O)c(F)c2)c1O", "note": "[Example 120, 2′,4-difluoro-4′-{[6-hydroxy-2-(4-methyl-1,3-thiazol-2-yl)-4-oxo-1-[(1S)-1-phenylpropyl]-1,4-dihydropyrimidin-5-yl]methyl}-[1,1′-biphenyl]-2-carboxamide]", "EC50": "0.01 to 10"}
{"smiles": "Cc1ncccc1-c1ccc(Cc2c(O)n([C@H](c3cc(F)cc(C#N)c3)C(C)C)c(COC(C)C)nc2=O)cc1", "note": "[Example 121, 3-fluoro-5-[(1S)-1-(6-hydroxy-5-{[4-(2-methylpyridin-3-yl)phenyl]methyl}-4-oxo-2-[(propan-2-yloxy)methyl]-1,4-dihydropyrimidin-1-yl)-2-methylpropyl]benzonitrile]", "EC50": "10 to 100"}
{"smiles": "CCOCc1nc(=O)c(Cc2ccc(-c3ccncc3C)cc2)c(O)n1[C@@H](COC)c1cc(F)cc(F)c1", "note": "[Example 122, 1-[(1R)-1-(3,5-difluorophenyl)-2-methoxyethyl]-2-(ethoxymethyl)-6-hydroxy-5-{[4-(3-methylpyridin-4-yl)phenyl]methyl}-1,4-dihydropyrimidin-4-one]", "EC50": "0.01 to 10"}
{"smiles": "CCOCc1nc(=O)c(Cc2ccc(-c3cccnc3C)cc2)c(O)n1[C@@H](COC)c1cc(F)cc(F)c1", "note": "[Example 123, 1-[(1R)-1-(3,5-difluorophenyl)-2-methoxyethyl]-2-(ethoxymethyl)-6-hydroxy-5-{[4-(2-methylpyridin-3-yl)phenyl]methyl}-1,4-dihydropyrimidin-4-one]", "EC50": "0.01 to 10"}
{"smiles": "CCOCc1nc(=O)c(Cc2ccc(-c3ccc(F)nc3C)cc2)c(O)n1[C@@H](COC)c1cc(F)cc(F)c1", "note": "[Example 124, 1-[(1R)-1-(3,5-difluorophenyl)-2-methoxyethyl]-2-(ethoxymethyl)-5-{[4-(6-fluoro-2-methylpyridin-3-yl)phenyl]methyl}-6-hydroxy-1,4-dihydropyrimidin-4-one]", "EC50": "0.01 to 10"}
{"smiles": "CCOCc1nc(=O)c(Cc2ccc(-c3ccc(F)nc3)cc2)c(O)n1[C@@H](COC)c1cc(F)cc(F)c1", "note": "[Example 125, 1-[(1R)-1-(3,5-difluorophenyl)-2-methoxyethyl]-2-(ethoxymethyl)-5-{[4-(6-fluoropyridin-3-yl)phenyl]methyl}-6-hydroxy-1,4-dihydropyrimidin-4-one]", "EC50": "10 to 100"}
